“Also recorded” adds a separate entry of the source.
Experiments:
Assay type in all cases: physicochemical
[1] = Indices of tableting performance (Hiestand) of bulk azithromycin; settings: forms N, M, G, A milled, F and J unmilled
Method: Indices of tableting performance, for several azithromycin forms, were assessed to identify any mechanical deficiencies or attributes that may affect tablet formulation for these azithromycin forms. This assessment was performed in accordance with the procedures described in “Indices of Tableting, Performance” […] and D. P. Smith, Powder Technology 38 [1984] pp. 145-159. Specifically, the Brittle Fracture Index, BFI, was calculated from the ratio of a material's regular tensile strength to its compromised tensile strength. Strain Index, SI, was determined from the dynamic indentation hardness test. Worst Case Bonding Index was determined by assessing the extent of particle bonding remaining after decompression assuming a very short compression dwell time and a plastic mechanism of particle separation during decompression. Tableting Indices were determined for bulk azithromycin lots of six different crystalline forms, specifically forms N, M, G, A, F and J. Forms N, M and G were milled with a Fitzmill (Model JT, The Fitzpatrick Co., Elmhurst, Ill.) using a 0.027'' screen and knives at high speed in an attempt to match the smaller particle size of milled Form A. Unmilled forms F and J were evaluated “as is” due to their relatively small particle sizes.

[2] = Tablet hardness, Schleuniger hardness tablet tester
Method: (§1) All four formulations were compressed on the compaction simulator using either 0.344″×0.688″ oval tooling, or ½″ standard round concave (SRC) tooling. The tablets were tested for hardness (kP scale), using a Schleuniger hardness tablet tester (Dr. Schleuniger Pharmatron AG, Solothurn, Switzerland), and for friability (100 rotations/4 minutes) using a Vanderkamp Friabulator Tablet Tester (Vankel, Cary, N.C., US).

[3] = Tablet friability, Vanderkamp Friabulator (100 rotations/4 minutes); settings: Table 4D; high drug loading; diluent DCP, dihyd.; modified capsule shape
[4] = Tablet disintegration time, Automatic Disintegration Tester; settings: Table 2A; Long blend; Oval tooling; distilled water at 37° C.
Method: The disintegration time was determined in distilled water at 37° C. using an Automatic Disintegration Tester (Model ZT72, Erweka USA Inc, Milford, Conn.) for the long blend tablets. Even with extensive blending times with magnesium stearate, reasonably short disintegration times of 15 and 20 seconds were obtained.

[5] = Tablet hardness, Schleuniger hardness tablet tester; remark: listed apart in the source
[6] = Slug (compact) hardness, Schleuniger hardness tablet tester
Description: A compaction simulator was used to compress the blends. The compaction simulator was designed as a single station tablet press in which the compression dwell time can be adjusted to simulate different types of tablet presses. All the formulations were slugged on the compaction simulator configured as the Kilian RX-67 press with a dwell time of 0.3145 seconds using […] round flat face tooling. The slugs were then comminuted using a Fitz mill with a 0.125″ screen with knives forward and run at slow speed. […] The slugs were tested for hardness (kP scale), using a Schleuniger hardness tablet tester (Dr. Schleuniger Pharmatron AG, Solothurn, Switzerland).

[7] = Tablet friability, Vanderkamp Friabulator (100 rotations/4 minutes)
Method: Friability is a standard test known to one skilled in the art. Friability is measured under standardized conditions by weighing out a certain number of tablets (generally 20 tablets or less), placing them in a rotating Plexiglas drum in which they are lifted during replicate revolutions by a radial lever, and then dropped approximately 8 inches. After replicate revolutions (typically 100 revolutions at 25 rpm), the tablets are reweighed and the percentage of formulation abraded or chipped is calculated. The friability of the tablets, of the present invention, is preferably in the range of about 0% to 3%, and values about 1%, or less, are considered acceptable for most drug and food tablet contexts. Friability which approaches 0% is particularly preferred.
as §1

[8] = Table 2B Run 4, Short blend, Oval tooling, compression force 12 kN
[9] = Table 4C, low drug loading, diluent DCP, anhyd., Oval tooling
[10] = Table 4C, low drug loading, diluent DCP, dihyd., SRC (½″) tooling
[11] = Table 2B Run 5, Short blend, Oval tooling, compression force 18.7 kN
[12] = Table 3D, high drug loading (58.2 wt % azithromycin), DCP anhydrous, modified capsule shape tablets, target weight 450 mg
[13] = Table 4C, low drug loading, diluent DCP, anhyd., SRC (½″) tooling
[14] = Table 4C, low drug loading, diluent DCP, dihyd., Oval tooling
[15] = Table 4D, high drug loading, diluent DCP, anhyd., modified capsule shape

Brittle Fracture Index (BFI) [1]: 0.10
Strain Index (SI) ([1]; dihydrate): 0.0044
Tensile Strength ([1]; dihydrate): 0.99 Mpa
Worst Case Bonding Index (BIw) × 10^2 ([1]; dihydrate): 0.9
Avg Tablet Hardness ([2]; Table 2A, 35.2 wt % azithromycin, DCP anhydrous, Long blend, Oval tooling, compression force 13.5 kN (A), 19 kN (F)): 9.0 kP
Avg Tab Hardness [2, 8]: 6.8 kP
Avg Tablet Hardness [2, 9]: 9.0 kP
Avg Tablet Hardness [2, 10]: 6.2 kP
Friability [3]: 0.49%
Mean disintegration Time [4]: 15 s
Avg Tablet Hardness ([5]; Table 2A, 35.2 wt % azithromycin, DCP anhydrous, Long blend, ½″ SRC tooling, 9.6 kN): 5.8 kP
Avg Tab Hardness [5, 11]: 8.2 kP
Avg Hardness ([5]; Table 3C, low drug loading (35.2 wt % azithromycin), DCP anhydrous, oval tablets, target weight 750 mg): 9.0 kP
Avg Hardness [5, 12]: 6.2 kP
Avg Tablet Hardness [5, 13]: 5.8 kP
Avg Tablet Hardness [5, 14]: 6.8 kP
Avg Tablet Hardness [5, 15]: 6.2 kP
Avg Tablet Hardness ([5]; Table 4D, high drug loading, diluent DCP, dihyd., modified capsule shape): 5.2 kP
Avg Slug Hardness ([6]; 35.2 wt % azithromycin, dicalcium phosphate anhydrous diluent, Long blend method): 13.4 kP
Avg Slug Hardness ([6]; 35.2 wt % azithromycin, dicalcium phosphate anhydrous diluent, Short blend method): 13.7 kP
Avg Slug Hardness ([6]; Table 3A, low drug loading: 35.2 wt % azithromycin, 54.8 wt % dicalcium phosphate anhydrous, long blend): 13 kP
Avg Slug Hardness ([6]; Table 3B, high drug loading: 58.2 wt % azithromycin, 31.8 wt % dicalcium phosphate anhydrous, long blend): 12 kP
Avg Slug Hardness ([6]; Table 4A, low drug loading (35.2 wt % azithromycin), diluent DCP, anhyd.): 13 kP
Avg Slug Hardness ([6]; Table 4A, low drug loading (35.2 wt % azithromycin), diluent DCP, dihyd.): 11 kP
Avg Slug Hardness ([6]; Table 4B, high drug loading (58.2 wt % azithromycin), diluent DCP, anhyd.): 12 kP
Avg Slug Hardness ([6]; Table 4B, high drug loading (58.2 wt % azithromycin), diluent DCP, dihyd.): 10 kP
Friability ([7]; Table 2A, 35.2 wt % azithromycin, DCP anhydrous, Long blend, Oval tooling): 2 of 5
Friability ([7]; Table 2A, 35.2 wt % azithromycin, DCP anhydrous, Long blend, ½″ SRC tooling): 1.30%
Friability [7, 8]: capped
Friability [7, 11]: capped
Friability [7, 12]: 0.50%
Friability [7, 9]: Broken
Friability [7, 13]: 1.30%
Friability [7, 14]: Broken
Friability [7, 10]: 0.94%
Friability [7, 15]: 0.50%
Compound: CC[C@H]1OC(=O)[C@H](C)[C@@H](O[C@H]2C[C@@](C)(OC)[C@@H](O)[C@H](C)O2)[C@H](C)[C@@H](O[C@@H]2O[C@H](C)C[C@H](N(C)C)[C@H]2O)[C@](C)(O)C[C@@H](C)CN(C)[C@H](C)[C@@H](O)[C@]1(C)O [Form A, azithromycin dihydrate, reference compound]
Friability ([7]; Table 3C, low drug loading (35.2 wt % azithromycin), DCP anhydrous, oval tablets, target weight 750 mg, dihydrate): broke during friability testing; also recorded: Broken

From patent US20030228357A1, “Dry granulated formulations of azithromycin” (Pfizer Inc., priority 2002, published 2003)
